According to US12521393B2, “Cytotoxicity targeting chimeras for CCR2-expressing cells” (GLAXOSMITHKLINE INTELLECTUAL PROPERTY DEVELOPMENT LIMITED, priority 2021, dated 2026):
Structures can show the parent of a compound that is named as a salt.

What follows are compounds tested on endogenous target monocytes in human PBMC (assay: PBMC ex vivo monocyte depletion flow cytometry assay (Example 200)). Details: with anti-cotinine antibody (SEQ ID NO: 11/12), 18-24 hours, EC50 in molar, read-out: Ex Vivo Depletion Assay pEC50 (converted).
Type: cell-based
Summary of the method: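 Monocyte depletion is reported as pEC50, averaged or given individually across runs, and read by flow cytometry staining CD45, CD14 and CD4 with a viability dye. Compounds, diluted four-fold over 11 points from 1 mM DMSO stocks, were combined with 30 μg/mL Fc-enhanced anti-cotinine antibody and human PBMC, then incubated 18-24 h at 37° C.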

Row | SMILES | EC50 [nM]
1 | CC(C)N(C)[C@@H]1CC[C@H](N2CC[C@H](Nc3ncnc4ccc(C(F)(F)F)cc34)C2=O)[C@H](NC(=O)[C@H]2CC[C@H](c3ccc(C(=O)NCCOCCOCCNC(=O)[C@H]4CC(=O)N(C)[C@@H]4c4cccnc4)nc3)CC2)C1 [Example 141, 5-((1R,4r)-4-(((1R,2S,5R)-5-(Isopropyl(methyl)amino)-2-((S)-2-oxo-3-((6-(trifluoromethyl)qinazolin-4-yl)amino)pyrrolidin-1-yl)cyclohexyl)carbamoyl)cyclohexyl)-N-(2-(2-(2-((2S,3S)-1-methyl-5-oxo-2-(pyridin-3-yl)pyrrolidine-3-carboxamido)ethoxy)ethoxy)ethyl)picolinamide] | 6.31
2 | CC(C)N(C)[C@@H]1CC[C@H](N2CC[C@H](Nc3ncnc4ccc(C(F)(F)F)cc34)C2=O)[C@H](NC(=O)[C@H]2CC[C@@H](N3CCN(CCCCCCCCNC(=O)[C@H]4CC(=O)N(C)[C@@H]4c4cccnc4)CC3)CC2)C1 [Example 145, (2S,3S)-N-(8-(4-((1S,4s)-4-(((1R,2S,5R)-5-(Isopropyl(methyl)amino)-2-((S)-2-oxo-3-((6-(trifluoromethyl)quinazolin-4-yl)amino)pyrrolidin-1-yl)cyclohexyl)carbamoyl)cyclohexyl)piperazin-1-yl)octyl)-1-methyl-5-oxo-2-(pyridin-3-yl)pyrrolidine-3-carboxamide] | 1.26
3 | CC(C)N(C)[C@@H]1CC[C@H](N2CC[C@H](Nc3ncnc4ccc(C(F)(F)F)cc34)C2=O)[C@H](NC(=O)COCCCCCCCCCOCCCCCCCNC(=O)[C@H]2CC(=O)N(C)[C@@H]2c2cccnc2)C1 [Example 153, (2S,3S)-N-(7-((9-(2-(((1R,2S,5R)-5-(Isopropyl(methyl)amino)-2-((S)-2-oxo-3-((6-(trifluoromethyl)quinazolin-4-yl)amino)pyrrolidin-1-yl)cyclohexyl)amino)-2-oxoethoxy)nonyl)oxy)heptyl)-1-methyl-5-oxo-2-(pyridin-3-yl)pyrrolidine-3-carboxamide] | 0.631
4 | CC(C)N(C)[C@@H]1CC[C@H](N2CC[C@H](Nc3ncnc4ccc(C(F)(F)F)cc34)C2=O)[C@H](NC(=O)c2cnn(C3CCN(C(=O)CCCCCCCCCCNC(=O)[C@H]4CC(=O)N(C)[C@@H]4c4cccnc4)CC3)c2)C1 [Example 156, N-((1R,2S,5R)-5-(Isopropyl(methyl)amino)-2-((S)-2-oxo-3-((6-(trifluoromethyl)quinazolin-4-yl)amino)pyrrolidin-1-yl)cyclohexyl)-1-(1-(11-((2S,3S)-1-methyl-5-oxo-2-(pyridin-3-yl)pyrrolidine-3-carboxamido)undecanoyl)piperidin-4-yl)-1H-pyrazole-4-carboxamide] | 0.794
5 | CC(C)N(C)[C@@H]1CC[C@H](N2CC[C@H](Nc3ncnc4ccc(C(F)(F)F)cc34)C2=O)[C@H](NC(=O)C2CC=C(c3ccc(OCCCCCCNC(=O)[C@H]4CC(=O)N(C)[C@@H]4c4cccnc4)cc3)CC2)C1 (stereo partly drawn) [Example 158, (2S,3S)-N-(6-((4′-(((1R,2S,5R)-5-(Isopropyl(methyl)amino)-2-((S)-2-oxo-3-((6-(trifluoromethyl)quinazolin-4-yl)amino)pyrrolidin-1-yl)cyclohexyl)carbamoyl)-2′,3′,4′,5′-tetrahydro-[1,1′-biphenyl]-4-yl)oxy)hexyl)-1-methyl-5-oxo-2-(pyridin-3-yl)pyrrolidine-3-carboxamide] | 0.501
6 | CC(C)N(C)[C@@H]1CC[C@H](N2CC[C@H](Nc3ncnc4ccc(C(F)(F)F)cc34)C2=O)[C@H](NC(=O)c2ccnc(CCCOCCOCCOCCOCCNC(=O)[C@H]3CC(=O)N(C)[C@@H]3c3cccnc3)c2)C1 [Example 160, N-((1R,2S,5R)-5-(Isopropyl(methyl)amino)-2-((S)-2-oxo-3-((6-(trifluoromethyl)quinazolin-4-yl)amino)pyrrolidin-1-yl)cyclohexyl)-2-(1-((2S,3S)-1-methyl-5-oxo-2-(pyridin-3-yl)pyrrolidin-3-yl)-1-oxo-5,8,11,14-tetraoxa-2-azaheptadecan-17-yl)isonicotinamide, 3Formic acid salt] | 31.6
7 | CC(C)N(C)[C@@H]1CC[C@H](N2CC[C@H](Nc3ncnc4ccc(C(F)(F)F)cc34)C2=O)[C@H](NC(=O)CCCCCCCCC(=O)NCCCCCCCCCCNC(=O)[C@H]2CC(=O)N(C)[C@@H]2c2cccnc2)C1 [Example 165, N^1-((1R,2S,5R)-5-(isopropyl(methyl)amino)-2-((S)-2-oxo-3-((6-(trifluoromethyl)quinazolin-4-yl)amino)pyrrolidin-1-yl)cyclohexyl)-N^10-(10-((2S,3S)-1-methyl-5-oxo-2-(pyridin-3-yl)pyrrolidine-3-carboxamido)decyl)decanediamide] | 0.631
8 | CC(C)N(C)[C@@H]1CC[C@H](N2CC[C@H](Nc3ncnc4ccc(C(F)(F)F)cc34)C2=O)[C@H](NC(=O)CCOCCC(=O)N2CCC3(CCC(C(=O)NCCNC(=O)[C@H]4CC(=O)N(C)[C@@H]4c4cccnc4)CC3)CC2)C1 [Example 167, 3-(3-(3-(((1R,2S,5R)-5-(Isopropyl(methyl)amino)-2-((S)-2-oxo-3-((6-(trifluoromethyl)quinazolin-4-yl)amino)pyrrolidin-1-yl)cyclohexyl)amino)-3-oxopropoxy)propanoyl)-N-(2-((2S,3S)-1-methyl-5-oxo-2-(pyridin-3-yl)pyrrolidine-3-carboxamido)ethyl)-3-azaspiro[5.5]undecane-9-carboxamide] | 1.58
9 | CC(C)N(C)[C@@H]1CC[C@H](N2CC[C@H](Nc3ncnc4ccc(C(F)(F)F)cc34)C2=O)[C@H](NC(=O)[C@H]2CC[C@@H](NC(=O)CCOCCOCCNC(=O)CCCNC(=O)[C@H]3CC(=O)N(C)[C@@H]3c3cccnc3)CC2)C1 [Example 176, (2S,3S)-N-(4-((2-(2-(3-(((1S,4s)-4-(((1R,2S,5R)-5-(Isopropyl(methyl)amino)-2-((S)-2-oxo-3-((6-(trifluoromethyl)quinazolin-4-yl)amino)pyrrolidin-1-yl)cyclohexyl)carbamoyl)cyclohexyl)amino)-3-oxopropoxy)ethoxy)ethyl)amino)-4-oxobutyl)-1-methyl-5-oxo-2-(pyridin-3-yl)pyrrolidine-3-carboxamide] | 0.316
10 | CC(C)N(CCOCCOCCC(=O)N[C@H]1CC[C@@H](C(=O)N[C@@H]2C[C@H](N(C)C(C)C)CC[C@@H]2N2CC[C@H](Nc3ncnc4ccc(C(F)(F)F)cc34)C2=O)CC1)C(=O)CCCNC(=O)[C@H]1CC(=O)N(C)[C@@H]1c1cccnc1 [Example 177, (2S,3S)-N-(4-(Isopropyl(2-(2-(3-(((1S,4s)-4-(((1R,2S,5R)-5-(isopropyl(methyl)amino)-2-((S)-2-oxo-3-((6-(trifluoromethyl)quinazolin-4-yl)amino)pyrrolidin-1-yl)cyclohexyl)carbamoyl)cyclohexyl)amino)-3-oxopropoxy)ethoxy)ethyl)amino)-4-oxobutyl)-1-methyl-5-oxo-2-(pyridin-3-yl)pyrrolidine-3-carboxamide] | 0.251
11 | CC(C)N(C)[C@@H]1CC[C@H](N2CC[C@H](Nc3ncnc4ccc(C(F)(F)F)cc34)C2=O)[C@H](NC(=O)CCCN2CCC3(CCC(C(=O)NCCNC(=O)[C@H]4CC(=O)N(C)[C@@H]4c4cccnc4)CC3)CC2)C1 [Example 183, 3-(4-(((1R,2S,5R)-5-(Isopropyl(methyl)amino)-2-((S)-2-oxo-3-((6-(trifluoromethyl)quinazolin-4-yl)amino)pyrrolidin-1-yl)cyclohexyl)amino)-4-oxobutyl)-N-(2-((2S,3S)-1-methyl-5-oxo-2-(pyridin-3-yl)pyrrolidine-3-carboxamido)ethyl)-3-azaspiro[5.5]undecane-9-carboxamide, 3 Formic acid salt] | 0.251
12 | CC(C)N(C)[C@@H]1CC[C@H](N2CC[C@H](Nc3ncnc4ccc(C(F)(F)F)cc34)C2=O)[C@H](NC(=O)C2CCN(C3CCN(C4CCN(CCCCNC(=O)[C@H]5CC(=O)N(C)[C@@H]5c5cccnc5)CC4)CC3)CC2)C1 [Example 185, N-((1R,2S,5R)-5-(isopropyl(methyl)amino)-2-((S)-2-oxo-3-((6-(trifluoromethyl)quinazolin-4-yl)amino)pyrrolidin-1-yl)cyclohexyl)-1″-(4-((2S,3S)-1-methyl-5-oxo-2-(pyridin-3-yl)pyrrolidine-3-carboxamido)butyl)-[1,4′:1′,4″-terpiperidine]-4-carboxamide] | 0.0631
13 | CC(C)N(C)[C@@H]1CC[C@H](N2CC[C@H](Nc3ncnc4ccc(C(F)(F)F)cc34)C2=O)[C@H](NC(=O)[C@H]2CC[C@H](C3CCN(CCOCCOCCNC(=O)[C@H]4CC(=O)N(C)[C@@H]4c4cccnc4)CC3)CC2)C1 [Example 189, (2S,3S)-N-(2-(2-(2-(4-((1R,4r)-4-(((1R,2S,5R)-5-(Isopropyl(methyl)amino)-2-((S)-2-oxo-3-((6-(trifluoromethyl)quinazolin-4-yl)amino)pyrrolidin-1-yl)cyclohexyl)carbamoyl)cyclohexyl)piperidin-1-yl)ethoxy)ethoxy)ethyl)-1-methyl-5-oxo-2-(pyridin-3-yl)pyrrolidine-3-carboxamide] | 7.94
14 | CC(C)N(C)[C@@H]1CC[C@H](N2CC[C@H](Nc3ncnc4ccc(C(F)(F)F)cc34)C2=O)[C@H](NC(=O)[C@H]2CC[C@H](N3CCN(CCOCCOCCNC(=O)[C@H]4CC(=O)N(C)[C@@H]4c4cccnc4)CC3)CC2)C1 [Example 190, (2S,3S)-N-(2-(2-(2-(4-((1R,4r)-4-(((1R,2S,5R)-5-(isopropyl(methyl)amino)-2-((S)-2-oxo-3-((6-(trifluoromethyl)quinazolin-4-yl)amino)pyrrolidin-1-yl)cyclohexyl)carbamoyl)cyclohexyl)piperazin-1-yl)ethoxy)ethoxy)ethyl)-1-methyl-5-oxo-2-(pyridin-3-yl)pyrrolidine-3-carboxamide] | 3.16
